The target of the assay is T1, HPK1 (Homo sapiens, UniProt Q92918).
T1 construct: A HiBiT tag was introduced by CRISPR on the N terminus of HPK1 in Jurkat cells; host or cells: Jurkat cells (ATCC TIB-152), monoclonal line with CRISPR knock-in of HiBiT at the endogenous HPK1 locus
The assay can be described thus: HPK1 Cellular HiBit Degradation Assay. The format is cell-based. To be noted: HiBiT HPK1 Jurkat cells, 24 hrs; for DC50: concentration at which 50% of HPK1 was remaining, read-out: DC50 Category; for Dmax: Jurkat, read-out: Dmax Category. In outline:
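HPK1 levels are read by HiBiT luminescence after 24 h exposure of HiBiT-knock-in Jurkat cells to compound at 10 uM–0.1 nM final (11 points). Relative to DMSO (100%), DC50 is the concentration leaving 50% HPK1 from a variable-slope fit, and Dmax is 100 minus minimum remaining. Viability checked in-plate.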
(With HiBiT, luminescence reflects the tagged protein that the partner subunit can reach.)

[1] abbreviates: maximum degradation vs DMSO vehicle control.

Broadly, the DC50 is the concentration at which degradation of the target reaches its halfway point. The Dmax is the greatest extent of degradation seen.

T1 sequence (Q92918 whole entry): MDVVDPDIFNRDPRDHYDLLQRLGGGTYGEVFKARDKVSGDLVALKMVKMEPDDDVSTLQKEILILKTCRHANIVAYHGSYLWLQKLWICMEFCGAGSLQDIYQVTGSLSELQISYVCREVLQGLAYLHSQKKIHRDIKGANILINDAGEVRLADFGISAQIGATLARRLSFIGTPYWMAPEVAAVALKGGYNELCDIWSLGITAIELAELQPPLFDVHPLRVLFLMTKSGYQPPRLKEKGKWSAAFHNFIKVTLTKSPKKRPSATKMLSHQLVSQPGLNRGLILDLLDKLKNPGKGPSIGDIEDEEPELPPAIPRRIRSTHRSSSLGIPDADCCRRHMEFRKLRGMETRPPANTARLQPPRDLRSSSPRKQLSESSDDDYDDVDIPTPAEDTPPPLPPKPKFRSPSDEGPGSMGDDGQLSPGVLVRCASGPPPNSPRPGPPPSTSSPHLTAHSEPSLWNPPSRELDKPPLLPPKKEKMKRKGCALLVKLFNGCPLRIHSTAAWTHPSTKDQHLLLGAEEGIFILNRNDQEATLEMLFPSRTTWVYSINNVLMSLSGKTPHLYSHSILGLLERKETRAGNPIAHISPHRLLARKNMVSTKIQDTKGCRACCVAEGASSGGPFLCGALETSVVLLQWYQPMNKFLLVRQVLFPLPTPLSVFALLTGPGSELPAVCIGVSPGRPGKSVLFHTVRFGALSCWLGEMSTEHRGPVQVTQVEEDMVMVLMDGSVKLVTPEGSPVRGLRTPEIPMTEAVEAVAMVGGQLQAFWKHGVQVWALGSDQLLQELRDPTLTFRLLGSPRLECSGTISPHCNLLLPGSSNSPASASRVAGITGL

For the molecule `CC(C)n1cnc2cc(-c3ccc4c(c3)N([C@H]3C[C@@H](N5CCCCC5)C3)C(=O)C43CCN(C(=O)[C@H]4CC[C@H](C(=O)N5CCC(N(C)c6ccc(C7CCC(=O)NC7=O)cn6)CC5)CC4)CC3)nc(NC3CC3)c21` (mixture of isomers) [Example 137, (3RS)-3-{6-[methyl({1-[(1R,4R)-4-({6-[4-(cyclopropylamino)-3-(propan-2-yl)-3H-imidazo[4,5-c]pyridin-6-yl]-2-oxo-1-[(1S,3S)-3-(piperidin-1-yl)cyclobutyl]-1,2-dihydrospiro[indole-3,4′-piperidin]-1′-yl}carbonyl)cyclohexanecarbonyl]piperidin-4-yl})amino]pyridin-3-yl}piperidine-2,6-dione], the half-maximal degradation concentration (DC50) was less than 0.1 µM. Under setting [1], the maximal degradation (Dmax) fell in the range of 70 to 85%.

Consider `CC(C)n1cnc2cc(-c3ccc4c(c3)N([C@H]3C[C@@H](N5CCCCC5)C3)C(=O)C43CCN(C(=O)C4CCN(C(=O)[C@H]5CC[C@H](C(=O)N6CCc7ccc(C8CCC(=O)NC8=O)cc7C6)CC5)CC4)CC3)nc(Nc3ccccc3F)c21` (mixture of isomers) [Example 50, (3RS)-3-{2-[(1R,4R)-4-{4-[(6-{4-[(2-fluorophenyl)amino]-3-(propan-2-yl)-3H-imidazo[4,5-c]pyridin-6-yl}-2-oxo-1-[(1S,3S)-3-(piperidin-1-yl)cyclobutyl]-1,2-dihydrospiro[indole-3,4′-piperidin]-1′-yl)carbonyl]piperidine-1-carbonyl}cyclohexanecarbonyl]-1,2,3,4-tetrahydroisoquinolin-7-yl}piperidine-2,6-dione], for which the 50% degradation concentration (DC50) is less than 0.1 µM. Under setting [1], the Dmax was in the range of 70 to 85%.

Take `CC(C)n1cnc2cc(-c3ccc4c(c3)N([C@H]3C[C@@H](N5CCCCC5)C3)C(=O)C43CCN(C(=O)C4CCN(C[C@H]5CC[C@H](C(=O)N6CCc7cc(C8CCC(=O)NC8=O)ccc7C6)CC5)CC4)CC3)nc(Nc3ccccc3F)c21` (mixture of isomers) [Example 46]: the DC50 fell in the range of 0.1 to 0.5 µM. Moreover, the Dmax under setting [1] was greater than 85%.

Regarding `CC(C)n1cnc2cc(-c3ccc4c(c3)N([C@H]3C[C@@H](N5CCCCC5)C3)C(=O)C43CCN(C(=O)C4(C)CCN(C(=O)C5CCN(c6ccc(C7CCC(=O)NC7=O)nc6)CC5)CC4)CC3)nc(NC3CC3)c21` (mixture of isomers) [Example 118, (3RS)-3-(5-{4-[4-({6-[4-(cyclopropylamino)-3-(propan-2-yl)-3H-imidazo[4,5-c]pyridin-6-yl]-2-oxo-1-[(1S,3S)-3-(piperidin-1-yl)cyclobutyl]-1,2-dihydrospiro[indole-3,4′-piperidin]-1′-yl}carbonyl)-4-methylpiperidine-1-carbonyl]piperidin-1-yl}pyridin-2-yl)piperidine-2,6-dione], the DC50 was less than 0.1 µM. For the same molecule, the maximal degradation (Dmax) under setting [1] was in the range of 50 to 70%.

Consider `CC(C)n1cnc2cc(-c3ccc4c(c3)N([C@H]3C[C@@H](N5CCCCC5)C3)C(=O)C43CCN(C(=O)C4[C@@H]5C[C@H]4CN(C(=O)[C@H]4CC[C@H](Oc6ccc(C7CCC(=O)NC7=O)cc6)CC4)C5)CC3)nc(NC3CC3)c21` (stereo partly drawn) [Example 238, 3-(4-(((1R,4R)-4-((1R,5S,6S)-6-(6-(4-(cyclopropylamino)-3-isopropyl-3H-imidazo[4,5-c]pyridin-6-yl)-2-oxo-1-((1S,3S)-3-(piperidin-1-yl)cyclobutyl)spiro[indoline-3,4′-piperidine]-1′-carbonyl)-3-azabicyclo[3.1.1]heptane-3-carbonyl)cyclohexyl)oxy)phenyl)piperidine-2,6-dione], for which the DC50 was less than 0.1 µM. The Dmax under setting [1] is greater than 85%.

Regarding `CC(C)n1cnc2cc(-c3ccc4c(c3)N([C@H]3C[C@@H](N5CCCCC5)C3)C(=O)C43CCN(C(=O)C4CCCN(C(=O)C5CCN(c6ccc(C7CCC(=O)NC7=O)cn6)CC5)C4)CC3)nc(NC3CC3)c21` (mixture of isomers) [Example 272, (3RS)-3-(6-{4-[3-({6-[4-(cyclopropylamino)-3-(propan-2-yl)-3H-imidazo[4,5-c]pyridin-6-yl]-2-oxo-1-[(1S,3S)-3-(piperidin-1-yl)cyclobutyl]-1,2-dihydrospiro[indole-3,4′-piperidin]-1′-yl}carbonyl)piperidine-1-carbonyl]piperidin-1-yl}pyridin-3-yl)piperidine-2,6-dione], the DC50 is less than 0.1 µM. Besides, the Dmax under setting [1] lay within 70 to 85%.

In the case of `CC(C)n1cnc2cc(-c3ccc4c(c3)N([C@H]3C[C@@H](N5CCCCC5)C3)C(=O)C43CCN(C(=O)C4CN(C(=O)C5CCN(c6ccc(C7CCC(=O)NC7=O)cc6)CC5)CC(F)(F)C4)CC3)nc(NC3CC3)c21` (mixture of isomers) [Example 268, (3RS)-3-(4-{4-[5-({6-[4-(cyclopropylamino)-3-(propan-2-yl)-3H-imidazo[4,5-c]pyridin-6-yl]-2-oxo-1-[(1S,3S)-3-(piperidin-1-yl)cyclobutyl]-1,2-dihydrospiro[indole-3,4′-piperidin]-1′-yl}carbonyl)-3,3-Difluoropiperidine-1-carbonyl]piperidin-1-yl}phenyl)piperidine-2,6-dione], the DC50 lay within 0.1 to 0.5 µM. Further, under setting [1], the Dmax lay within 50 to 70%.

Take `CC(C)n1cnc2cc(-c3ccc4c(c3)N([C@H]3C[C@@H](N5CCC[C@H](F)C5)C3)C(=O)C43CCN(C(=O)C4(C)CCN(C(=O)CC5CCN(c6ccc(C7CCC(=O)NC7=O)cn6)CC5)CC4)CC3)nc(NC3CC3)c21` (mixture of isomers) [Example 206, (3RS)-3-[6-(4-{2-[4-({6-[4-(cyclopropylamino)-3-(propan-2-yl)-3H-imidazo[4,5-c]pyridin-6-yl]-2-oxo-1-[(1S,3S)-3-[(3S)-3-fluoropiperidin-1-yl]cyclobutyl]-1,2-dihydrospiro[indole-3,4′-piperidin]-1′-yl}carbonyl)-4-methylpiperidin-1-yl]-2-oxoethyl}piperidin-1-yl)pyridin-3-yl]piperidine-2,6-dione]: the DC50 is 0.1 to 0.5 µM. For the same molecule, under setting [1], the Dmax fell in the range of 50 to 70%.

`CC(C)n1cnc2cc(-c3ccc4c(c3)N([C@H]3C[C@@H](N5CCCCC5)C3)C(=O)C43CCN(C(=O)C4(C)CCN(C(=O)C5CCN(c6ccc7c(c6)C(=O)N(C6CCC(=O)NC6=O)C7=O)CC5)CC4)CC3)nc(Nc3ccccc3F)c21` (stereo partly drawn) [Example 122, 2-(2,6-dioxopiperidin-3-yl)-5-(4-{4-[(6-{4-[(2-fluorophenyl)amino]-3-(propan-2-yl)-3H-imidazo[4,5-c]pyridin-6-yl}-2-oxo-1-[(1S,3S)-3-(piperidin-1-yl)cyclobutyl]-1,2-dihydrospiro[indole-3,4′-piperidin]-1′-yl)carbonyl]-4-methylpiperidine-1-carbonyl}piperidin-1-yl)-2,3-dihydro-1H-isoindole-1,3-dione]: the DC50 lay in the range of 0.1 to 0.5 µM. In addition, under setting [1], the Dmax fell in the range of 70 to 85%.

With `Cc1cc(C2CCC(=O)NC2=O)cnc1N1CCC(C(=O)N2CCC(C)(C(=O)N3CCC4(CC3)C(=O)N(C3CC(N5CCCCC5)C3)c3cc(-c5cc6ncn(C(C)C)c6c(NC6CC6)n5)ccc34)CC2)CC1` (racemic) [Example 148, (3RS)-3-(6-{4-[4-({6-[4-(cyclopropylamino)-3-(propan-2-yl)-3H-imidazo[4,5-c]pyridin-6-yl]-2-oxo-1-[(1S,3S)-3-(piperidin-1-yl)cyclobutyl]-1,2-dihydrospiro[indole-3,4′-piperidin]-1′-yl}carbonyl)-4-methylpiperidine-1-carbonyl]piperidin-1-yl}-5-Methylpyridin-3-yl)piperidine-2,6-dione], the DC50 is less than 0.1 µM. Moreover, the “Dmax Category” value under setting [1] is “B (B: >70%-<85%)”.

On to `CC(C)n1cnc2cc(-c3ccc4c(c3)N([C@H]3C[C@@H](N5CCCCC5)C3)C(=O)C43CCN(C(=O)C4(C)CCN(C(=O)C5CCN(c6ccc(C7CCC(=O)NC7=O)cn6)CC5)CC4)CC3)nc(Nc3ccccc3F)c21` (mixture of isomers) [Example 114, (3RS)-3-[6-(4-{4-[(6-{4-[(2-fluorophenyl)amino]-3-(propan-2-yl)-3H-imidazo[4,5-c]pyridin-6-yl}-2-oxo-1-[(1S,3S)-3-(piperidin-1-yl)cyclobutyl]-1,2-dihydrospiro[indole-3,4′-piperidin]-1′-yl)carbonyl]-4-methylpiperidine-1-carbonyl}piperidin-1-yl)pyridin-3-yl]piperidine-2,6-dione], for which the DC50 was less than 0.1 µM. For the same molecule, the Dmax under setting [1] lay in the range of 70 to 85%.

On to `CC(C)n1cnc2cc(-c3ccc4c(c3)N([C@H]3C[C@@H](N5CCCCC5)C3)C(=O)C43CCN(C(=O)C4CCC5(CCN(C(=O)C6CCN(c7ccc(C8CCC(=O)NC8=O)cn7)CC6)CC5)C4)CC3)nc(NC3CC3)c21` (mixture of isomers) [Example 294, (3RS)-3-(6-{4-[2-({6-[4-(cyclopropylamino)-3-(propan-2-yl)-3H-imidazo[4,5-c]pyridin-6-yl]-2-oxo-1-[(1S,3S)-3-(piperidin-1-yl)cyclobutyl]-1,2-dihydrospiro[indole-3,4′-piperidin]-1′-yl}carbonyl)-8-azaspiro[4.5]decane-8-carbonyl]piperidin-1-yl}pyridin-3-yl)piperidine-2,6-dione], for which the DC50 is 0.1 to 0.5 µM. Further, the Dmax under setting [1] lay within 70 to 85%.

On to `COC1CN(C(=O)C2CCN(c3ccc(C4CCC(=O)NC4=O)cc3)CC2)CCC1C(=O)N1CCC2(CC1)C(=O)N([C@H]1C[C@@H](N3CCCCC3)C1)c1cc(-c3cc4ncn(C(C)C)c4c(NC4CC4)n3)ccc12` (mixture of isomers) [Example 257, (3RS)-3-(4-{4-[4-({6-[4-(cyclopropylamino)-3-(propan-2-yl)-3H-imidazo[4,5-c]pyridin-6-yl]-2-oxo-1-[(1S,3S)-3-(piperidin-1-yl)cyclobutyl]-1,2-dihydrospiro[indole-3,4′-piperidin]-1′-yl}carbonyl)-3-methoxypiperidine-1-carbonyl]piperidin-1-yl}phenyl)piperidine-2,6-dione], for which the DC50 was less than 0.1 µM. Further, the Dmax under setting [1] lay in the range of 50 to 70%.
